Some test systems named below: CCRF-CEM leukemia; HCT-116 colon; EKVX NSCLC; SF-295 CNS; NCI-H226 lung; M14 melanoma; OVCAR-3 ovarian; SR leukemia; SNB-19 CNS; CAKI-1 renal.
Common to all, as to assay: inhibition of tumour cell growth, NCI panel, 48 h

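1) Cells in 96-well plates. 2) Compound, 48 h, 5 concentrations. 3) Linear interpolation between surrounding doses. 4) Unreached endpoint = highest concentration. Abbreviation: GI50, concentration required for 50% inhibition of growth. TGI marks complete inhibition of growth.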

As to `N#CC1c2ccccc2-c2ccccc2N1C(=O)c1ccccc1` (configuration not stated), the GI50 with CCRF-CEM leukemia was 2.17 µM; in the experiment on HCT-116 colon, 1.74 µM; in the experiment on EKVX NSCLC, 7.2 µM; in the experiment with SF-295 CNS, 2.63 µM; in the experiment with NCI-H226 lung, 3.11 µM; with M14 melanoma it was 1.47 µM. The GI50 in the experiment with OVCAR-3 ovarian is 0.748 µM; in the experiment on SR leukemia, 2.92 µM; in the experiment on SNB-19 CNS it was 4.12 µM. Also, the TGI in the experiment with CCRF-CEM leukemia was over 36.3 µM; in the experiment with HCT-116 colon, 9.22 µM; in the experiment with EKVX NSCLC, over 100 µM; in the experiment on SF-295 CNS, over 100 µM; in the experiment with NCI-H226 lung, over 100 µM; in the experiment on M14 melanoma, 7.1 µM. Besides, the TGI is 2.47 µM in the experiment on OVCAR-3 ovarian and over 100 µM in the experiment on SNB-19 CNS.

For `O=C1OC(c2ccc(O)cc2)(c2ccc(O)cc2)c2cccc3cccc1c23`, the GI50 in the experiment with CCRF-CEM leukemia is 19.8 µM; with HCT-116 colon, 15.6 µM; in the experiment on CAKI-1 renal, 18.1 µM; with SF-295 CNS, 15 µM; with NCI-H226 lung, 17.6 µM; in the experiment with M14 melanoma, 16.4 µM. In addition, the values for the GI50 in the experiment on OVCAR-3 ovarian, with SR leukemia and with SNB-19 CNS were 3.53 µM, 10.8 µM and 16.8 µM, respectively. The TGI stood at 48.4 µM in the experiment with CCRF-CEM leukemia; 31.5 µM in the experiment with HCT-116 colon; 44.6 µM in the experiment with CAKI-1 renal; 31.8 µM in the experiment with SF-295 CNS; 44.7 µM in the experiment on NCI-H226 lung; 33 µM with M14 melanoma. Moreover, the results for the TGI with OVCAR-3 ovarian, in the experiment on SR leukemia and in the experiment with SNB-19 CNS were 19.9 µM, 38.3 µM and 34.5 µM, respectively.

Regarding `CN1C(=O)c2cc(Cl)nc3c(NC(=O)c4cccc(Cl)c4)c(Cl)c(NC(=O)c4cccc(Cl)c4)c1c23`, the GI50 is 2.01 µM with CCRF-CEM leukemia; 1.31 µM in the experiment with HCT-116 colon; 1.85 µM in the experiment with EKVX NSCLC; 2.87 µM in the experiment on SF-295 CNS; 2.02 µM with NCI-H226 lung; 1.47 µM with M14 melanoma. In addition, the GI50 was 1.92 µM in the experiment with OVCAR-3 ovarian, 0.58 µM in the experiment on SR leukemia and 2.45 µM with SNB-19 CNS. The TGI stood at 5.59 µM in the experiment with CCRF-CEM leukemia; 2.69 µM in the experiment on HCT-116 colon; 4.21 µM in the experiment on EKVX NSCLC; 11.6 µM in the experiment with SF-295 CNS; 4.05 µM with NCI-H226 lung; 3.03 µM in the experiment with M14 melanoma. Also, the TGI in the experiment on OVCAR-3 ovarian stood at 3.57 µM; in the experiment with SR leukemia it was 2.95 µM; with SNB-19 CNS it was 6.08 µM.

Turning to `COc1ccc(C[C@H]2C[C@@H](O)[C@@H](C)C/C=C/Cc3cccc(O)c3C(=O)O2)cn1`, the GI50 in the experiment on HCT-116 colon was 19.5 µM; in the experiment with EKVX NSCLC it was 32.1 µM; in the experiment with CAKI-1 renal, 21.8 µM; in the experiment on SF-295 CNS it was 18 µM; in the experiment on NCI-H226 lung it was 27.3 µM; with M14 melanoma it was 18.7 µM. Further, the GI50 in the experiment with OVCAR-3 ovarian is 50.5 µM; with SR leukemia it was 7.44 µM; in the experiment on SNB-19 CNS, 38.9 µM. Also, the TGI in the experiment with HCT-116 colon was 37.6 µM; in the experiment on EKVX NSCLC, over 100 µM; with CAKI-1 renal it was 54.6 µM; in the experiment on SF-295 CNS, 41.5 µM; in the experiment on NCI-H226 lung, over 100 µM; in the experiment with M14 melanoma, 36.6 µM. For the same compound, the values for the TGI in the experiment on OVCAR-3 ovarian, in the experiment on SR leukemia and in the experiment with SNB-19 CNS were over 100 µM, 33.7 µM and over 100 µM, respectively.

In the case of `COc1ccc([Se]c2ccc(OC)cc2OC)c(OC)c1`, the TGI in the experiment on CCRF-CEM leukemia is over 100 µM; in the experiment with HCT-116 colon, 46.5 µM; with CAKI-1 renal, over 100 µM; with SF-295 CNS it was 33.7 µM; in the experiment with NCI-H226 lung it was 83.3 µM; in the experiment on M14 melanoma, over 100 µM. The values for the TGI in the experiment with OVCAR-3 ovarian, with SR leukemia and with SNB-19 CNS were over 100 µM, 45.7 µM and over 100 µM, respectively.

On to `COC(=O)C12CC(C3CC31)C1CC12` (configuration not stated), for which the TGI with CCRF-CEM leukemia, with HCT-116 colon, in the experiment with CAKI-1 renal, in the experiment with SF-295 CNS, in the experiment on NCI-H226 lung and in the experiment on M14 melanoma was over 100 µM each time. Moreover, the TGI with OVCAR-3 ovarian, in the experiment with SR leukemia and in the experiment with SNB-19 CNS was over 100 µM each time.

`O=c1[nH]c(=O)n(C2CC(O)C(CO)O2)cc1C#Cc1ccc(C(F)(F)F)cc1` (configuration not stated): the TGI with CCRF-CEM leukemia, in the experiment on HCT-116 colon, with EKVX NSCLC, in the experiment on SF-295 CNS, in the experiment on NCI-H226 lung and in the experiment on M14 melanoma was over 100 µM throughout. Besides, the TGI with OVCAR-3 ovarian, in the experiment with SR leukemia and with SNB-19 CNS was over 100 µM in each case.

On to `Cc1ccc([P+](Cc2ccc([N+](=O)[O-])cc2)(c2ccc(C)cc2)c2ccc(C)cc2)cc1`, for which the GI50 is 1.92 µM in the experiment on CCRF-CEM leukemia; 1.49 µM in the experiment on HCT-116 colon; 18 µM with CAKI-1 renal; 5.24 µM in the experiment on SF-295 CNS; 5.31 µM with NCI-H226 lung; 2.96 µM in the experiment on M14 melanoma. Besides, the GI50 is 1.71 µM with OVCAR-3 ovarian, 2.84 µM in the experiment with SR leukemia and 3.25 µM in the experiment on SNB-19 CNS. Further, the TGI in the experiment on CCRF-CEM leukemia came to 12.5 µM; in the experiment with HCT-116 colon, 12 µM; in the experiment with CAKI-1 renal it was 47.1 µM; in the experiment on SF-295 CNS, 18.6 µM; in the experiment on NCI-H226 lung it was 21.4 µM; with M14 melanoma it was 12.3 µM. The TGI was determined as 7.07 µM with OVCAR-3 ovarian, 12.3 µM with SR leukemia and 13.6 µM in the experiment with SNB-19 CNS.

Consider `COc1cc[nH]c1/C=C1\C(=O)Nc2ccc(F)c(C#CC3(O)CCOCC3)c21`, for which the GI50 is 0.713 µM in the experiment on CCRF-CEM leukemia; 0.538 µM in the experiment with HCT-116 colon; 0.011 µM in the experiment on CAKI-1 renal; 0.849 µM with SF-295 CNS; 0.498 µM in the experiment on NCI-H226 lung; 0.664 µM with M14 melanoma. Besides, the GI50 in the experiment with OVCAR-3 ovarian is 0.911 µM; in the experiment on SR leukemia it was 0.447 µM; in the experiment with SNB-19 CNS, 1.02 µM. Further, the TGI was 1.86 µM with CCRF-CEM leukemia; over 25 µM in the experiment on HCT-116 colon; 16.4 µM in the experiment with SF-295 CNS; 2.2 µM with NCI-H226 lung; 4.28 µM in the experiment on M14 melanoma; 2.25 µM in the experiment on OVCAR-3 ovarian. For the same compound, the values for the TGI with SR leukemia and in the experiment on SNB-19 CNS were 2.75 µM and over 19.5 µM, respectively.

As to `CC(CS(=O)(=O)Cc1ccccc1)C(N)=O` (configuration not stated), the TGI in the experiment on HCT-116 colon, in the experiment on EKVX NSCLC, with CAKI-1 renal, in the experiment with SF-295 CNS, with NCI-H226 lung and with M14 melanoma was over 100 µM in each case. The TGI in the experiment with OVCAR-3 ovarian, in the experiment on SR leukemia and with SNB-19 CNS was over 100 µM each time.

The record behind these values is PubChem BioAssay (NCI).
